Results on two compounds are retold here after publication PMC10026069, “Retinal–Carotenoid Interactions in a Sodium-Ion-Pumping Rhodopsin: Implications on Oligomerization and Thermal Stability” (The Journal of Physical Chemistry. B, 2023).

“And” between values parts separate entries of the source, which are not always exact repeats. Equal values may be shown once.

For test [1], the target named is T1, DDR2 (Nonlabens (Donghaeana) dokdonensis rhodopsin, sodium-ion-pumping rhodopsin) (Nonlabens dokdonensis, UniProt A0ABX5Q1D8).
T1 construct: gene LX97_00829; pentamer at neutral pH
T1 sequence (A0ABX5Q1D8 1-279): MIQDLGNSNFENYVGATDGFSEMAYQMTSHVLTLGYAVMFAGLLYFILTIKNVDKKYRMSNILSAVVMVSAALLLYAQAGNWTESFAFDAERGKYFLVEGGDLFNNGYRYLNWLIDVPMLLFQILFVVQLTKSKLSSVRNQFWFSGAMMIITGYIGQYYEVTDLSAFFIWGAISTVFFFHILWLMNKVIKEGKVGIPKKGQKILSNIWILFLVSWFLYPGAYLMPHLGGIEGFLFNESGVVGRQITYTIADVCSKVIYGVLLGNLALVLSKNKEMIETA
Nature of the test: absorption spectroscopy of the pigment. The following applies: covalent, protonated Schiff base to lysine; pH 8, room temperature. In kind it is binding.

Test [2] deals with Nonlabens (Donghaeana) dokdonensis rhodopsin (DDR2) (Nonlabens (Donghaeana) dokdonensis). The experiment in a line: SEC; AKTA FPLC; DDM-solubilised DDR2 at pH 7 or 9; apparent masses from soluble protein markers; 0.06% DDM, 300 mM NaCl; also run with salinixanthin bound (oligomeric form not affected). A general note: SEC sorts molecules by how far they enter the pores of the column.

Consider `CC1=C(/C=C/C(C)=C/C=C/C(C)=C/C=O)C(C)(C)CCC1` [all-trans retinal], for which, in test [1], the “absorption spectroscopy of the pigment” value is “absorption of the all-trans retinal chromophore covalently bound to the protein”.

A word on the stoichiometry N: it is the number of molecules, sites or subunits per partner or assembly. Regarding “Nonlabens (Donghaeana) dokdonensis rhodopsin (DDR2) (natural protein)”, the stoichiometry N in test [2] was 5 and 10.
